Measurements published in ChEMBL document CHEMBL1157449, “Development of a novel fluorescent probe for fluorescence correlation spectroscopic detection of kinase inhibitors” (Bioorg Med Chem Lett, 2008).

What was measured:
[1] = target: T1, Mitogen-activated protein kinase kinase kinase 5 (Homo sapiens, UniProt Q99683); assay: Inhibition of ASK1 by luciferase assay
T1 sequence (Q99683 whole entry): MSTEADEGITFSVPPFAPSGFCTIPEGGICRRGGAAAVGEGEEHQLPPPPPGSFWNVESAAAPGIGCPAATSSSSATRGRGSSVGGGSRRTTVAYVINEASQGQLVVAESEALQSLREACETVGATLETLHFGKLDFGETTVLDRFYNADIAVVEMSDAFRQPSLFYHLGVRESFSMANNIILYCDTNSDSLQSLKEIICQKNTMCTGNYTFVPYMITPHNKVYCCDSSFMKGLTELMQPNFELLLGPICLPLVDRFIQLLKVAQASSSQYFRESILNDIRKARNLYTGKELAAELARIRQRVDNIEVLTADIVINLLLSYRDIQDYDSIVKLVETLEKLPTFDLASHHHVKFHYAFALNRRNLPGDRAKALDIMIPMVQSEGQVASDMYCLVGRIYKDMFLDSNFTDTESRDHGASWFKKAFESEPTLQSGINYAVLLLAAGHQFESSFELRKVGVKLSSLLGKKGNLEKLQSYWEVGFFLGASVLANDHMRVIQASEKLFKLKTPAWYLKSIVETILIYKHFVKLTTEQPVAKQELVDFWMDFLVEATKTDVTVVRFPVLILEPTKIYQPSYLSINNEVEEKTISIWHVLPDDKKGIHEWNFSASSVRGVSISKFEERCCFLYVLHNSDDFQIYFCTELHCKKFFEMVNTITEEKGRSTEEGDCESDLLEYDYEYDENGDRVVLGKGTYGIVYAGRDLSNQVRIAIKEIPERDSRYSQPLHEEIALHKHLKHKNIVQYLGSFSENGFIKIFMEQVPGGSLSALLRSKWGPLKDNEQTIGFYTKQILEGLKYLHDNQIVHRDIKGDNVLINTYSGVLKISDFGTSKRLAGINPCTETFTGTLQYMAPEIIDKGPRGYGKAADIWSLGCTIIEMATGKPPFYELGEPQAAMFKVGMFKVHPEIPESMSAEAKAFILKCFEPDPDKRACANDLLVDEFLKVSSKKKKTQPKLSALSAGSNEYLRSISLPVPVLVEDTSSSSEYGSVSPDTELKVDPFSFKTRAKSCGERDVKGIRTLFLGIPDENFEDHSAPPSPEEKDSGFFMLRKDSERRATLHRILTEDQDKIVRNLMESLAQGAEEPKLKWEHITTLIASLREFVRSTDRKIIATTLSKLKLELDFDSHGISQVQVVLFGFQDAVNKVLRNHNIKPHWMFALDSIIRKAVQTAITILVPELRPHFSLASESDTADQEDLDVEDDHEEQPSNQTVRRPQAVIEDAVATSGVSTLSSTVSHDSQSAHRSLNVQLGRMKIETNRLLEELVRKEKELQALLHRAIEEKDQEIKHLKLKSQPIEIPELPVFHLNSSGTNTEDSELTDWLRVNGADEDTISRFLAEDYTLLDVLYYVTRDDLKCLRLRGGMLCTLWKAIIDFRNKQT

[2] = target: T1, Mitogen-activated protein kinase kinase kinase 5; assay: Inhibition of ASK1 by fluorescence correlation spectroscopy
[3] = target: T1, Mitogen-activated protein kinase kinase kinase 5; assay: Binding affinity to ASK1

IC50 [1]	IC50 [2]	Kd [3]	Structure (SMILES)
82.7 µM	> 100 µM	–	Cn1cc(/C=C2\C(=O)Nc3ccccc32)c2ccccc21
–	–	8 µM	CO[C@@H]1[C@H](N(C)C(=O)COCCOCCNC(=O)c2ccc(-c3c4ccc(=[N+](C)C)cc-4oc4cc(N(C)C)ccc34)c(C(=O)O)c2)C[C@H]2O[C@]1(C)n1c3ccccc3c3c4c(c5c6ccccc6n2c5c31)C(=O)NC4
0.15 µM	7 µM	–	NC1=NC(=O)/C(=C2\CCNC(=O)c3[nH]c(Br)cc32)N1 [HYMENIALDISINE]
